In paper PMC6751026 (Addiction biology, 2019):

Target: T1, α1 glycine receptor (GlyR) (Mus musculus, UniProt Q64018, K421A/K422A)
T1 sequence (Q64018 29-457 K421A/K422A): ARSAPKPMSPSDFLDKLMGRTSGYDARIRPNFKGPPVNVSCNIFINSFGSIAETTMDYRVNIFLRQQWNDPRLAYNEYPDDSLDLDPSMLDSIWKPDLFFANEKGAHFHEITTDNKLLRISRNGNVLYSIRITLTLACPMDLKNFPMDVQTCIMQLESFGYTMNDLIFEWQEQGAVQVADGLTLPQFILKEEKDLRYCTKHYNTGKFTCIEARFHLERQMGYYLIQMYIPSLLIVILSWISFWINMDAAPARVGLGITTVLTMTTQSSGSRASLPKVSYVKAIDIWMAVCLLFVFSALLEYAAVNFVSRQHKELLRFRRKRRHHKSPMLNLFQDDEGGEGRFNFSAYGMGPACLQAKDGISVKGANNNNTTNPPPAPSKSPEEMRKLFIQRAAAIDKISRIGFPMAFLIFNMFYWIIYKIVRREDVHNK
Assay: whole-cell patch clamp, glycine concentration-response
Format: cell-based

NCC(=O)O [glycine] was tested, and the EC50 was 54 ± 1 µM.
